Test results taken from paper PMC11035696, “Prospective de novo drug design with deep interactome learning” (Nature Communications, 2024).
Several values for one entry are separate records, joined by “and”; a condition that tells them apart may be missing. Identical values can stand only once. Entries after “also recorded” stand apart in the source; their conditions may differ.

Key:
[1] = target: GLYCINE RECEPTOR, STRYCHNINE INSENSITIVE (Rattus norvegicus, UniProt P35439); experiment: Safety off-target panel, binding; details: read-out: Mean inhibition (%)
Chain of GLYCINE RECEPTOR, STRYCHNINE INSENSITIVE (P35439 394-800): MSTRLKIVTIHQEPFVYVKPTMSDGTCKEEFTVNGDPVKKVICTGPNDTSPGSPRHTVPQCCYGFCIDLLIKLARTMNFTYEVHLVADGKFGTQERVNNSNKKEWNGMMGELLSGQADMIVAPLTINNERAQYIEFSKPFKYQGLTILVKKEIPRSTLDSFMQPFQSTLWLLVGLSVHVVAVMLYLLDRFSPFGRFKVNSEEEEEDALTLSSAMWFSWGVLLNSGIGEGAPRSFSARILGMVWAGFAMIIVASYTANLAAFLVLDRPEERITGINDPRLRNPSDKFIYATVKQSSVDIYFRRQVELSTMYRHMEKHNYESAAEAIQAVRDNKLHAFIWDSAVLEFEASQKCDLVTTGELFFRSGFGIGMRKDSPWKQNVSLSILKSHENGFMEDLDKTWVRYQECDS
From the text: (§1) Table S9-S12 list all targets, their species, inhibition (%) and assay type for the experiments conducted in the
(§2) off-targets. […] The numbers for mean
(§3) inhibition (%) represent single point measurements.
(§4) off-targets. […] The numbers for
(§5) mean inhibition (%) represent single point measurements.

[2] = target: CHOLECYSTOKININ 1 RECEPTOR (Homo sapiens, UniProt P32238); experiment: Safety off-target panel, binding; details: single point
Chain of UniProt P32238 (P32238 whole entry): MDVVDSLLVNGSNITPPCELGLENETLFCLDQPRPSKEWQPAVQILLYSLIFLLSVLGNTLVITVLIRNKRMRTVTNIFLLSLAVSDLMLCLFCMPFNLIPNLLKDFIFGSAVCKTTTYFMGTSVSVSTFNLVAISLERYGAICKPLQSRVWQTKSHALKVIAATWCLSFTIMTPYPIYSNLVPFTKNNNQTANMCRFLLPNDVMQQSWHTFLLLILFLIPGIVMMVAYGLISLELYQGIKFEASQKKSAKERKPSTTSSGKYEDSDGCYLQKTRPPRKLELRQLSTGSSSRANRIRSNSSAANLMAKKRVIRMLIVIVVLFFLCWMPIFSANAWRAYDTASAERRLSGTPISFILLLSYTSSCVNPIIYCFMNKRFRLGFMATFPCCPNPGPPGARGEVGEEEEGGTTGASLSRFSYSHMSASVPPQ
From the text: as §1, §2, §3, §4, §5

ADENOSINE A1 RECEPTOR = ADENOSINE A1 RECEPTOR (Homo sapiens, UniProt P30542); experiment: Safety off-target panel, binding; details: single point
Chain of ADENOSINE A1 RECEPTOR (P30542 whole entry): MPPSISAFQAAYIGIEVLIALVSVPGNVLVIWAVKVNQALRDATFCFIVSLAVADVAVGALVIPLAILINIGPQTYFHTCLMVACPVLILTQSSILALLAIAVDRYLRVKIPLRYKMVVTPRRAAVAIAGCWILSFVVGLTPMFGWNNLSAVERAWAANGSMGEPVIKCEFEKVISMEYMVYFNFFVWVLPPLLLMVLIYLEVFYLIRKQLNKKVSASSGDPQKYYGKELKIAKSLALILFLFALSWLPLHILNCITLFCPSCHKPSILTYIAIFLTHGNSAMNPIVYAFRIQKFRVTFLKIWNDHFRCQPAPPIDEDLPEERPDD
From the text: as §1, §2, §3, §4, §5

[3] = target: DOPAMINE D2 RECEPTOR (short) (Homo sapiens, UniProt P14416); experiment: Safety off-target panel, binding; details: single point
Chain of DOPAMINE D2 RECEPTOR (short) (P14416 1-414 isoform P14416-2): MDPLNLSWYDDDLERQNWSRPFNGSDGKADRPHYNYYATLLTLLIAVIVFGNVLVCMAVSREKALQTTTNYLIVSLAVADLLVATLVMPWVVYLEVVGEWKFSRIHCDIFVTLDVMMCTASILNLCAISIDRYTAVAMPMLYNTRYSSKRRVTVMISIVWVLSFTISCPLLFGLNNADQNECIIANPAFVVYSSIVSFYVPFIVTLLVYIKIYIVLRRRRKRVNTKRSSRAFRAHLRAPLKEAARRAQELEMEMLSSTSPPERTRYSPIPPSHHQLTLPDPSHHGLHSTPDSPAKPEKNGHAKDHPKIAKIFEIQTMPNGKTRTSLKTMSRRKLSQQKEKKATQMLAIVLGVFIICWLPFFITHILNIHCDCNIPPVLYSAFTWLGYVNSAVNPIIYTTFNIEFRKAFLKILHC
From the text: as §1, §2, §3, §4, §5

DOPAMINE D1 RECEPTOR = DOPAMINE D1 RECEPTOR (Homo sapiens, UniProt P21728); experiment: Safety off-target panel, binding; details: single point
Chain of DOPAMINE D1 RECEPTOR (P21728 whole entry): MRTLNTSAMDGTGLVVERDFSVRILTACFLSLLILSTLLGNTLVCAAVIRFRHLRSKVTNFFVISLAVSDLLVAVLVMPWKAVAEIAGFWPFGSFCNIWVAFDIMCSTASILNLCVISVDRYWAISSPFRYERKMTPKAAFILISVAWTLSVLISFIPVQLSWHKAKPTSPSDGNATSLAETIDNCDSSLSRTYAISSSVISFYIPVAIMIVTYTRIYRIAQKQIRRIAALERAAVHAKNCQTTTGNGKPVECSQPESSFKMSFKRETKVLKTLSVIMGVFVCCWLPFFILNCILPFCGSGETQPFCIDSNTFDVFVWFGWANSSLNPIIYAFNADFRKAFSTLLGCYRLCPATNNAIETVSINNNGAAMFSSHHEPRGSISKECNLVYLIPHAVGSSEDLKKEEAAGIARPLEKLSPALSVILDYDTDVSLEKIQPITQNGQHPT
From the text: as §1, §2, §3, §4, §5

GLUCOCORTICOID RECEPTOR = GLUCOCORTICOID RECEPTOR (Homo sapiens, UniProt P04150); experiment: Safety off-target panel, binding; details: single point
Chain of UniProt P04150 (P04150 whole entry): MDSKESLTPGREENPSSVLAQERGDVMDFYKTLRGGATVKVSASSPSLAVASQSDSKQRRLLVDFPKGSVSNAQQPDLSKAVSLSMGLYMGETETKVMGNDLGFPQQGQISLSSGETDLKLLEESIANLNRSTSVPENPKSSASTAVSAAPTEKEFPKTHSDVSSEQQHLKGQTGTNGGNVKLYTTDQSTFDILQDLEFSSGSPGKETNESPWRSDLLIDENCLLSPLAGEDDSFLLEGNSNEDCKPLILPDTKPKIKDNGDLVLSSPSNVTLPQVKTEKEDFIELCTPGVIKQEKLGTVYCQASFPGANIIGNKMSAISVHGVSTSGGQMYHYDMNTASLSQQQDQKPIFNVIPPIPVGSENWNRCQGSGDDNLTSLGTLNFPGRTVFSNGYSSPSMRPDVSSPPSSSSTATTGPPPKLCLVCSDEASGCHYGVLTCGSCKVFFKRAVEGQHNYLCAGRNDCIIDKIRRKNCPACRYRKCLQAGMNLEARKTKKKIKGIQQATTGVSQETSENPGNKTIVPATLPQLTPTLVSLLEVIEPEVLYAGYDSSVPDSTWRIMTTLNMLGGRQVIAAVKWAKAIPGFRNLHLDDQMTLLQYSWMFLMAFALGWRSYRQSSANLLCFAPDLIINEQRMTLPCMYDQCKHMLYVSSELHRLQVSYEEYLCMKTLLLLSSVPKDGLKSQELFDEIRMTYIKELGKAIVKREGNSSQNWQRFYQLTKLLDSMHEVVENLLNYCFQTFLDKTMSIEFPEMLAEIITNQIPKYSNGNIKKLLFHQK
From the text: as §1, §2, §3, §4, §5

human PPARγ = target: T1, human PPARγ (Homo sapiens, UniProt P37231); experiment: Gal4-hybrid reporter gene assay, PPARγ activation; format: cell-based; details: PPARγ, compounds 1 and 2, Table 4; read-out: pEC50 (converted)
T1 construct: expressed in transfected cells; host or cells: HEK293T
T1 sequence (P37231 238-503 limits assumed): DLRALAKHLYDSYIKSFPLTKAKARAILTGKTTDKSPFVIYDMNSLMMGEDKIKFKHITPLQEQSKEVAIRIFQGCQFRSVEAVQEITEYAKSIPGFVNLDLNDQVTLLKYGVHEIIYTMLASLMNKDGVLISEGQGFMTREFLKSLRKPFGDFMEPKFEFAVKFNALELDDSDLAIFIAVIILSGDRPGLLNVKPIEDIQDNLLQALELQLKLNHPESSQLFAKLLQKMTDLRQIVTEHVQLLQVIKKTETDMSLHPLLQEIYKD
Protocol: (§6) Compounds 1–3 were characterized in a hybrid reporter gene assay for their agoniztic effect on human nuclear receptors PPARα/γ/δ, RXRα, FXRα, RARα in HEK293T cells. Compound 1 was tested in an isothermal titration calorimetry (ITC) assay to measure direct binding affinity to the ligand-binding domain of PPARγ. ADME properties were measured in standardized assays at Roche.
(§7) PPAR activation was determined in uniform Gal4-hybrid reporter gene assays for the PPARα, PPARγ and PPARδ isoforms in HEK293T cells (German Collection of Microorganisms and Cell Culture GmbH, DSMZ) which were transiently transfected with pFR-Luc (Stratagene, La Jolla, CA, USA; reporter) and pRL-SV40 (Promega, Madison, WI, USA; internal control) and one pFA-CMV-hPPAR-LBD[97] clone, coding for the hinge region and ligand binding domain of the canonical isoform of human PPARα, PPARγ, PPARδ or respectively. Cells were cultured in Dulbecco’s modified Eagle’s medium (DMEM), high glucose supplemented with 10% fetal calf serum (FCS), sodium pyruvate (1 mM), penicillin (100 U ⋅ ml^-1), and streptomycin (100 μg ⋅ ml^-1) at 37 °C and 5% CO2 and seeded in 96-well plates (3 × 10^4 cells per well). After 24 h, medium was changed to Opti-MEM without supplements and cells were transiently transfected using Lipofectamine LTX reagent (Invitrogen) according to the manufacturer’s protocol. Five hours after transfection, cells were incubated with the test compounds in Opti-MEM supplemented with penicillin (100 U ⋅ ml^-1), streptomycin (100 μg ⋅ ml^-1) and 0.1% DMSO for 16 h before luciferase activity was measured using the Dual-Glo Luciferase Assay System (Promega) according to the manufacturer’s protocol on a Tecan Spark luminometer (Tecan Deutschland GmbH, Germany). Firefly luminescence was divided by Renilla luminescence and multiplied by 1000 resulting in relative light units (RLU) to normalize for transfection efficiency and cell growth. Fold activation was obtained by dividing the mean RLU of a test compound by the mean RLU of the untreated control. All samples were tested in at least three biologically independent experiments in duplicates. For dose-response curve fitting and calculation of EC50 values, the equation “[Agonist] versus response (variable slope—four parameters)” was used in GraphPad Prism (version 7.00, GraphPad Software, La Jolla, CA, USA) with fold activation data. The reference agonizts GW7647 (PPARα)[98],[99], pioglitazone (PPARγ)[100],[101] and L165,041 (PPARδ)[102],[103] were used to validate the assays and to monitor assay performance. Nuclear receptor selectivity profiling was performed with corresponding pFA-CMV-hNR-LBD clones and suitable reference agonizts on RARα (pFA-CMV-hRARα-LBD[104], 1 μM tretinoin), LXRα (pFA-CMV-hLXRα-LBD[104], 1 μM TO901317) and RXRα (pFA-CMV-h RXRα-LBD[105], 1 μM Bexarotene).

[4] = target: T2, retinoid X receptor (RXR)α (Homo sapiens, UniProt P19793); experiment: Nuclear receptor selectivity profiling, hybrid reporter gene assay, RXRα; format: cell-based
T2 construct: RXRα (pFA-CMV-h RXRα-LBD[105], 1 μM Bexarotene); expressed in transfected cells; host or cells: HEK293T
T2 sequence (P19793 227-458 limits assumed): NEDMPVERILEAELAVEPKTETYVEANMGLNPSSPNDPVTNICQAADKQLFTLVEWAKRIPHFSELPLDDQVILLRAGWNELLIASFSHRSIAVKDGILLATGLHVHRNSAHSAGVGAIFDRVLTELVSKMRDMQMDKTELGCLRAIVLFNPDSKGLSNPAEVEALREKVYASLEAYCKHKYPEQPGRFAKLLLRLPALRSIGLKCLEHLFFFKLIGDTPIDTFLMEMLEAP
Protocol: as §6, §7

HEK293T cells = experiment: Cytotoxicity assay on HEK293T cells (Celltiter-glo); format: cell-based, human; details: 16 h and 24 h, 0.05–20 μM, range of cell numbers, result in words
Protocol: HEK293T cells were seeded at the indicated number per well in DMEM-high glucose, complemented with glutamax, pen-strep, and 10% FBS, in a total of 40 μl of medium. The cells were incubated overnight at 37 °C. Compounds were added to the cells at the indicated concentrations, resulting in a final Dimethylsulfoxid (DMSO) concentration of 0.2%. The compounds were incubated on the cells for either 16 h or 24 h. At the specified time point, the medium was carefully removed from the vessel, leaving only 2 μl in the wells. Celltiter-glo (CTG) reagent (G7572, Promega) was prepared according to the manufacturer’s instructions. Plates with cells were equilibrated at room temperature for 30 min. Subsequently, 25 μl of CTG reagent was added to the cells. The plates were then shaken for 2 min and incubated for an additional 15 min at room temperature. Luminescence was read afterward with BG Pherastar.

Compound	inhibition at 10 µM [1]	inhibition at 10 µM [2]	inhibition at 10 µM (ADENOSINE A1 RECEPTOR)	inhibition at 10 µM [3]	inhibition at 10 µM (DOPAMINE D1 RECEPTOR)	inhibition at 10 µM (GLUCOCORTICOID RECEPTOR)	EC50 (human PPARγ)	RXRα reporter activation, replicate values (DMSO ctrl = 1,000) ([4]; 3 µM)	RXRα reporter activation, replicate values (DMSO ctrl = 1,000) ([4]; 10 µM)	cytotoxicity on HEK293T cells (HEK293T cells)
Cc1nnc(-c2ccc(OCCCOc3ccc(CCC(=O)O)c(F)c3)c(F)c2)s1 [Compound 1]	2.3%	1.2%	9.4%	-1.9%	-3.3%	-3.8%	1.48 µM	1,140 and 1,672 and 0,965	0,945 and 2,262 and 0,954	did not indicate any cytotoxicity; also recorded: No cytotoxic effects
COc1ccc(Oc2ccc3ncn(CCOc4ccc(CCC(=O)O)cc4)c3c2)cc1 [Compound 2]	-8.3%	7.6%	-3.6%	-6.8%	-5.7%	-2.1%	2.29 µM	1,173 and 1,058 and 1,366	1,398 and 1,193 and 1,167	did not indicate any cytotoxicity; also recorded: No cytotoxic effects
